How the values were obtained:
Cytochrome P450 2C19 = Cytochrome P450 2C19 (Homo sapiens, UniProt P33261); details: bti-tn-5b1-4; note: in other assays of this panel Not Active means under 50% inhibition at 10 µM
[1] = target: 5-hydroxytryptamine receptor 4 (Cavia porcellus, UniProt O70528); assay type: cell membranes, Dunkin-Hartley, Striatum, Membrane; note: in other assays of this panel Not Active means under 50% inhibition at 10 µM
[2] = DRUGMATRIX: Glutamate, AMPA radioligand binding (ligand: [3H] AMPA); assay type: cell membranes, Rattus norvegicus, Wistar, Cerebral cortex, Membrane; details: Not Active = under 50% inhibition at 10 µM
Cytochrome P450 3A4 = Cytochrome P450 3A4 (Homo sapiens, UniProt P08684); details: bti-tn-5b1-4; note: in other assays of this panel Not Active means under 50% inhibition at 10 µM
[3] = DRUGMATRIX: Imidazoline I2, Central radioligand binding (ligand: [3H] Idazoxan); assay type: cell membranes, Rattus norvegicus, Wistar, Cerebral cortex, Membrane; details: Not Active = under 50% inhibition at 10 µM
[4] = target: Vascular endothelial growth factor receptor 1 (Homo sapiens, UniProt P17948); assay type: cell-based; details: huvec; note: in other assays of this panel Not Active means under 50% inhibition at 10 µM
[5] = target: 5-hydroxytryptamine receptor 6 (Homo sapiens, UniProt P50406); assay type: cell membranes, HeLa, Membrane; note: in other assays of this panel Not Active means under 50% inhibition at 10 µM
Sequence of 5-hydroxytryptamine receptor 6 (P50406 whole entry): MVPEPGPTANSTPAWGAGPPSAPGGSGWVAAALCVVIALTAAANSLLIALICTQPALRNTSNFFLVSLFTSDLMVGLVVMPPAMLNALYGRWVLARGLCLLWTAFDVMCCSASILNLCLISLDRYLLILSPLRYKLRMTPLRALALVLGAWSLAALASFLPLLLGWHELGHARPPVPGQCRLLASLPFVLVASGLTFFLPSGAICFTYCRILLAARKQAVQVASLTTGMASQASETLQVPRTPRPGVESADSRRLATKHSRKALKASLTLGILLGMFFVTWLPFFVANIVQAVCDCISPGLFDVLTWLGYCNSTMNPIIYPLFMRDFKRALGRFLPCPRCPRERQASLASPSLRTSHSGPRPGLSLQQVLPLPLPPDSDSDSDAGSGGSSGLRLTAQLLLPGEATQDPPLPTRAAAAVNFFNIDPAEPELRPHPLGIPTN

Sequence of 5-hydroxytryptamine receptor 4 (O70528 whole entry): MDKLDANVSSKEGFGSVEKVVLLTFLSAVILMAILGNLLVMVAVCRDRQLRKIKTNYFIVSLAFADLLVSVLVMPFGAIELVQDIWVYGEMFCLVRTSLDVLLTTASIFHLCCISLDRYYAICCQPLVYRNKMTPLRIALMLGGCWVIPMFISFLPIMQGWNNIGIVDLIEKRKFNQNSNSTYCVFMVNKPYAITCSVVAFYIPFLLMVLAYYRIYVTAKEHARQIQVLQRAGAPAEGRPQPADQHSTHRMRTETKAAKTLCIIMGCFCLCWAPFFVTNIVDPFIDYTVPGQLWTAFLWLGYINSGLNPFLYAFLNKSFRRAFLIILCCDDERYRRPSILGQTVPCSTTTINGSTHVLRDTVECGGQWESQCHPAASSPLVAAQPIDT
Sequence of Vascular endothelial growth factor receptor 1 (P17948 whole entry): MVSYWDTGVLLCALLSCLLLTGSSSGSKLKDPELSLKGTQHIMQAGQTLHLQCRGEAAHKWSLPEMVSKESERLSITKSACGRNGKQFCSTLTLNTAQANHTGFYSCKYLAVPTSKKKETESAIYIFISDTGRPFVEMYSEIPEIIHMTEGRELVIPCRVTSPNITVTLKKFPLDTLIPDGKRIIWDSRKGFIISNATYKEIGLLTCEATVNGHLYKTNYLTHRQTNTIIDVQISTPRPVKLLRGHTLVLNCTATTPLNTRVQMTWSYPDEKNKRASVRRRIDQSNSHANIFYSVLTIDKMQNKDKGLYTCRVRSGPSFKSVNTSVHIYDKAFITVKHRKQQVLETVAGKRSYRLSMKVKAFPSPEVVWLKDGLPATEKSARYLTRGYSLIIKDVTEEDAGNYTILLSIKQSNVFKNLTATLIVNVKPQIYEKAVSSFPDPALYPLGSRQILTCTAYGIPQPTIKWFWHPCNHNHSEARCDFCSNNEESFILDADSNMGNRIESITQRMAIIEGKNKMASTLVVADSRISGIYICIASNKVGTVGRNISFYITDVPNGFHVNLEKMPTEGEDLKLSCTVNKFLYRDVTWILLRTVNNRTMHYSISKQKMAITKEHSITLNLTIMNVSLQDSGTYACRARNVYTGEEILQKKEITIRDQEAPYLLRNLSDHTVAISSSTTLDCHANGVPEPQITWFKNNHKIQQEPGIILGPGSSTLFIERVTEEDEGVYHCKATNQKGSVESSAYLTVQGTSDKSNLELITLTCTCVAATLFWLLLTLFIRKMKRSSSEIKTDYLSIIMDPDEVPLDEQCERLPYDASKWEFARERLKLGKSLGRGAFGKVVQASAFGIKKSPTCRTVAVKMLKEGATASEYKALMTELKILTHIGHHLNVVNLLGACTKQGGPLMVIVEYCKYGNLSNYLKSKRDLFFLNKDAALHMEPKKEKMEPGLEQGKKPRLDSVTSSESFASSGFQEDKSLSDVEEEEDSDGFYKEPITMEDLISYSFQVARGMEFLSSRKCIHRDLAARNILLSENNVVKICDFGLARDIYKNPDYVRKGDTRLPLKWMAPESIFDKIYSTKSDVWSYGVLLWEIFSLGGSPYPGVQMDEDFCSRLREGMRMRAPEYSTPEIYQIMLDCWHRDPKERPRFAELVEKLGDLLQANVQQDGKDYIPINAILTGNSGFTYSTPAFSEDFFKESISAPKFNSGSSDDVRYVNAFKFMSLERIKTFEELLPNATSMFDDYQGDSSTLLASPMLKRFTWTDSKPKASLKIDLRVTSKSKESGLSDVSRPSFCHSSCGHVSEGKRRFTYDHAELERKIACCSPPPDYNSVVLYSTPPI
Sequence of Cytochrome P450 2C19 (P33261 whole entry): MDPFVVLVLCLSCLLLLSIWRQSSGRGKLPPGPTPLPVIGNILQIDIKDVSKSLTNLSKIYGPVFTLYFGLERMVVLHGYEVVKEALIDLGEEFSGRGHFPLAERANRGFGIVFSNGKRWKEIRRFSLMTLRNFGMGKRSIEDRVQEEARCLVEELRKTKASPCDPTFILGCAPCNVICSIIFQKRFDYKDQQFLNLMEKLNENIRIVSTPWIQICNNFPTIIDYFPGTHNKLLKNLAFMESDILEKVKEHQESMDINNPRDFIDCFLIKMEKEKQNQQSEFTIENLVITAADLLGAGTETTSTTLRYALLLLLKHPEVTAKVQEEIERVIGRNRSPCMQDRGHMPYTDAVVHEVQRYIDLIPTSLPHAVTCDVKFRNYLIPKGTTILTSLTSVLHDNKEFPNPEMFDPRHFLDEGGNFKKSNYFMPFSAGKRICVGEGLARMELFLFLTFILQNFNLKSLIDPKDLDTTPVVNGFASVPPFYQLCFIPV
Sequence of Cytochrome P450 3A4 (P08684 whole entry): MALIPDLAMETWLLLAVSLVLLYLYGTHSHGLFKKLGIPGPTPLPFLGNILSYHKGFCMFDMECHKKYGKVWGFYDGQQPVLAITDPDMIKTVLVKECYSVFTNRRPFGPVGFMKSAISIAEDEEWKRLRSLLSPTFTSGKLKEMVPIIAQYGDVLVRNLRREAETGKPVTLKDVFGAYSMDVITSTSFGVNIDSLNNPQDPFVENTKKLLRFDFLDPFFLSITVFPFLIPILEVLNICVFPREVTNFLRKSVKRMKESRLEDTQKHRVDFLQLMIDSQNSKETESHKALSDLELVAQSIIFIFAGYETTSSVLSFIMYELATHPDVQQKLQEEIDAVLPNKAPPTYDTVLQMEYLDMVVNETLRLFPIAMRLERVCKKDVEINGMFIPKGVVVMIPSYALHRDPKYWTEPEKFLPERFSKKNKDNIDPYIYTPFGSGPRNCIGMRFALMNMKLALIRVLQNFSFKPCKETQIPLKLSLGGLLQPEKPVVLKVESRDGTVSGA

Molecule | IC50 (Cytochrome P450 2C19) | Ki (Cytochrome P450 2C19) | IC50 [1] | IC50 [2] | Ki [2] | IC50 (Cytochrome P450 3A4) | Ki (Cytochrome P450 3A4) | IC50 [3] | Ki [3] | IC50 [4] | IC50 ([5]; hela) | IC50 ([5]; read-out: IC50) [nM] | Ki ([5]; read-out: Ki) [nM] | IC50 ([3]; read-out: IC50) [nM] | Ki ([3]; read-out: Ki) [nM] | Ki [1] | Ki [4] | Ki ([5]; hela)
O=C1CN(/N=C/c2ccc([N+](=O)[O-])o2)C(=O)N1 [NITROFURANTOIN] | Not Active | Not Active | Not Active | Not Active | Not Active | Not Active | Not Active | Not Active | Not Active | Not Active | Not Active | – | – | – | – | – | – | –
O=c1[nH]c2ccccc2c2ccccc12 | Not Active | Not Active | Not Active | Not Active | Not Active | Not Active | Not Active | Not Active | Not Active | Not Active | Not Active | – | – | – | – | – | – | –
COC(=O)C[C@](O)(CCC(C)(C)O)C(=O)O[C@@H]1C(OC)=C[C@]23CCCN2CCc2cc4c(cc2[C@H]13)OCO4 [HARRINGTONINE] | Not Active | Not Active | Not Active | Not Active | Not Active | Not Active | Not Active | Not Active | Not Active | Not Active | Not Active | – | – | – | – | – | – | –
Nc1nc(F)nc2c1ncn2[C@@H]1O[C@H](CO)[C@@H](O)[C@@H]1O [FLUDARABINE] | Not Active | Not Active | Not Active | Not Active | Not Active | Not Active | Not Active | Not Active | Not Active | Not Active | Not Active | – | – | – | – | – | – | –
C=C(Cl)Cl [1,1-DICHLOROETHENE] | Not Active | Not Active | Not Active | Not Active | Not Active | Not Active | Not Active | Not Active | Not Active | Not Active | Not Active | – | – | – | – | – | – | –
CC[C@H]1OC(=O)[C@H](C)[C@@H](O[C@H]2C[C@@](C)(OC)[C@@H](O)[C@H](C)O2)[C@H](C)[C@@H](O[C@@H]2O[C@H](C)C[C@H](N(C)C)[C@H]2O)[C@](C)(O)C[C@@H](C)C(=O)[C@H](C)[C@@H](O)[C@]1(C)O [ERYTHROMYCIN] | Not Active | Not Active | Not Active | Not Active | Not Active | Not Active | Not Active | Not Active | Not Active | Not Active | Not Active | – | – | – | – | – | – | –
CCC1(c2ccccc2)C(=O)NC(=O)NC1=O [PHENOBARBITAL] | Not Active | Not Active | Not Active | Not Active | Not Active | Not Active | Not Active | Not Active | Not Active | Not Active | Not Active | – | – | – | – | – | – | –
CCN1C[C@]2(COC)[C@H](O)C[C@H](OC)[C@@]34[C@@H]5C[C@@]6(O)[C@H](OC(=O)c7ccccc7)[C@@H]5[C@@](OC(C)=O)([C@@H]([C@H](OC)[C@H]23)[C@@H]14)[C@@H](O)[C@@H]6OC [ACONITINE] | Not Active | Not Active | Not Active | Not Active | Not Active | Not Active | Not Active | Not Active | Not Active | Not Active | Not Active | – | – | – | – | – | – | –
CCN1CCN(C(=O)N[C@@H](C(=O)N[C@@H]2C(=O)N3[C@@H]2SC(C)(C)[C@@H]3C(=O)O)c2ccccc2)C(=O)C1=O [PIPERACILLIN] | Not Active | Not Active | Not Active | Not Active | Not Active | Not Active | Not Active | Not Active | Not Active | Not Active | Not Active | – | – | – | – | – | – | –
O=C(O)c1ccccc1 [BENZOIC ACID] | Not Active | Not Active | Not Active | Not Active | Not Active | Not Active | Not Active | Not Active | Not Active | Not Active | Not Active | – | – | – | – | – | – | –
OC[C@H]1O[C@@H]2O[C@H]3[C@H](O)[C@@H](O)[C@@H](O[C@H]4[C@H](O)[C@@H](O)[C@@H](O[C@H]5[C@H](O)[C@@H](O)[C@@H](O[C@H]6[C@H](O)[C@@H](O)[C@@H](O[C@H]7[C@H](O)[C@@H](O)[C@@H](O[C@H]1[C@H](O)[C@H]2O)O[C@@H]7CO)O[C@@H]6CO)O[C@@H]5CO)O[C@@H]4CO)O[C@@H]3CO [ALFADEX] | Not Active | Not Active | Not Active | Not Active | Not Active | Not Active | Not Active | Not Active | Not Active | Not Active | Not Active | – | – | – | – | – | – | –
c1ccc2sc(SSc3nc4ccccc4s3)nc2c1 [BENZOTHIAZYL DISULFIDE] | Not Active | Not Active | Not Active | Not Active | Not Active | Not Active | Not Active | Not Active | Not Active | Not Active | – | 5280 | 2450 | – | – | – | – | –
CNC[C@H](O)c1ccc(O)c(O)c1 [EPINEPHRINE] | Not Active | Not Active | Not Active | Not Active | Not Active | Not Active | Not Active | – | – | Not Active | Not Active | – | – | 232 | 154 | – | – | –
POVIDONE | Not Active | Not Active | Not Active | Not Active | Not Active | Not Active | Not Active | Not Active | Not Active | Not Active | Not Active | – | – | – | – | Not Active | Not Active | Not Active
C=CCO [ALLYL ALCOHOL] | Not Active | Not Active | Not Active | Not Active | Not Active | Not Active | Not Active | Not Active | Not Active | Not Active | Not Active | – | – | – | – | – | – | –
CHROMIC CHLORIDE | Not Active | Not Active | Not Active | Not Active | Not Active | Not Active | Not Active | Not Active | Not Active | Not Active | Not Active | – | – | – | – | Not Active | Not Active | Not Active
Clc1cc(Cl)c(OCC#CI)cc1Cl [HALOPROGIN] | Not Active | Not Active | Not Active | Not Active | Not Active | Not Active | Not Active | Not Active | Not Active | Not Active | – | 4010 | 1860 | – | – | – | – | –
C[N+](C)(C)CCOP(=O)([O-])OC[C@H](O)CO | Not Active | Not Active | Not Active | Not Active | Not Active | Not Active | Not Active | Not Active | Not Active | Not Active | Not Active | – | – | – | – | – | – | –
COc1ccc(C[C@H](N)C(=O)N[C@H]2[C@@H](O)[C@H](n3cnc4c(N(C)C)ncnc43)O[C@@H]2CO)cc1 [PUROMYCIN] | Not Active | Not Active | Not Active | Not Active | Not Active | Not Active | Not Active | Not Active | Not Active | Not Active | Not Active | – | – | – | – | – | – | –
ClC1=C(Cl)[C@]2(Cl)[C@@H]3[C@@H]4C[C@@H]([C@H]5O[C@@H]45)[C@@H]3[C@@]1(Cl)C2(Cl)Cl [DIELDRIN] | Not Active | Not Active | Not Active | Not Active | Not Active | Not Active | Not Active | Not Active | Not Active | Not Active | Not Active | – | – | – | – | – | – | –
CARBOXYMETHYLCELLULOSE | Not Active | Not Active | Not Active | Not Active | Not Active | Not Active | Not Active | Not Active | Not Active | Not Active | Not Active | – | – | – | – | Not Active | Not Active | Not Active
CC(CN1c2ccccc2Sc2ccccc21)N(C)C (stereo not given) [PROMETHAZINE] | Not Active | Not Active | Not Active | Not Active | Not Active | Not Active | Not Active | – | – | Not Active | – | 2430 | 1130 | 1990 | 1330 | – | – | –
NCC(CC(=O)O)c1ccc(Cl)cc1 (stereo not given) [BACLOFEN] | Not Active | Not Active | Not Active | Not Active | Not Active | Not Active | Not Active | Not Active | Not Active | Not Active | Not Active | – | – | – | – | – | – | –
CN(CCOc1ccc(C[C@H](Nc2ccccc2C(=O)c2ccccc2)C(=O)O)cc1)c1ccccn1 | Not Active | Not Active | Not Active | Not Active | Not Active | Not Active | Not Active | Not Active | Not Active | Not Active | Not Active | – | – | – | – | – | – | –
COPPER(II) OXIDE | Not Active | Not Active | Not Active | Not Active | Not Active | Not Active | Not Active | Not Active | Not Active | Not Active | Not Active | – | – | – | – | Not Active | Not Active | Not Active

— ChEMBL document CHEMBL1909046, “DrugMatrix in vitro pharmacology data”
